The values that follow come from patent publication US8729047B2, “Compositions for inhibiting redox-sensitive GTPases” (Board of Regents, The University of Texas System, priority 2010, dated 2014).

Test [1] has as its target Ras (Homo sapiens, UniProt P01112). As to the kind of experiment: [3H]GDP displacement of 6-TGDP from .NO2-treated 6-TGDP-loaded GTPase with/without DTT (FIG. 13B). Format: binding. The procedure:
FIG. 13. Guanine nucleotide exchange of small GTPases with 6-TGDP. (A) To monitor 6-TGDP-mediated GTPase GDP dissociation, [^3H]GDP-loaded GTPase (1 μM) was incubated with 6-TGDP (0-2000 μM) for 1 h. (B) To monitor GTPase 6-TGDP dissociation by GDP (0-2000 μM) in the presence and absence of dithiothreitol (DTT), 6-TGDP-loaded GTPase (˜1 μM) was treated with .NO2 (˜3 μM) under anaerobic conditions and was incubated with various concentrations of [^3H]GDP (0-2000 μM) in the presence and absence of DTT (10 mM) for 1 h. For all assays, aliquots were withdrawn and spotted onto nitrocellulose filters. The filters were then washed three times with an assay buffer, and radioactivity was determined using a Beckman-Coulter scintillation counter. The resultant radioactivity (dpm) values associated with GTPase-bound [^3H]GDP were converted into the fraction of mol nucleotide per mol total GTPase. The data presented represent mean and standard error values from triplicate measurements. The apparent dissociation constants (appKD values) of GTPase 6-TGDP association ([^3H]GDP dissociation, A); and 6-TGDP dissociation ([3H]GDP association, B) were obtained by fitting the data to a simple dissociation and association, respectively. (A) The ^appKD values of Ras, RhoC, RhoA and Rac1 for 6-TGDP, are, respectively, 2300, 230, 224, and 245 μM [6-TGDP]. (B) The appKD values of RhoC with and without DTT are, respectively, 560, and 1000 μM [[^3H]GDP], whereas the ^appKD values of Ras with and without DTT are 530, and 520 μM [[^3H]GDP], respectively. The standard errors of each ^appKD value are less than 10% of their given values, and regression values associated with the fit were r^2>0.9560.
The ^appKD [3H]GDP was converted into ^trueKD [3H]GDP by using a compensation equation, ^trueKD [3H]GDP=^appKD [3H]GDP/(1+[6-TGDP]/^trueKD GDP) (Segel, I. H. (1993) Enzyme kinetics, A Wiley-Interscience publication, New York) (see above)). The calculated ^trueKD [3H]GDP values of RhoC in the presence and absence of DTT were estimated to be 516 μM and 923 μM, respectively. […] Treatment with DTT, a reducing agent, disrupts the disulfide bond between RhoC and 6-TGDP, liberating 6-TGDP from RhoC, and thereby permitting [^3H]GDP to bind to RhoC.

The target of test [2] is T1, RhoA (Homo sapiens, UniProt P61586).
T1 construct: made in house; host or cells: E. coli
The following applies: known value (Morgan et al.); read-out: trueKD for GDP; cited from earlier work.

Test [3] deals with Rac1 (Homo sapiens, UniProt P63000). On the set-up: made in house; host or cells: E. coli. The note with it: known value (Morgan et al.); read-out: trueKD for GDP; cited from earlier work.
Test [4] deals with HME-C20S RhoC cells. As to the kind of experiment: Matrigel invasion (cell motility) assay. The test is classed as cell-based, human. The note with it: FIG. 14A. The source says: (§1) FIG. 14. Determination of cell invasiveness in the presence and absence of thiopurines and/or redox agents. […] Western blot analysis representing the total expression of RhoC in these cells also is shown. (B) Experimental procedures for the determination of the time-dependent motility of cells using the QCM Cell Invasion Assay kit in the presence and absence of 6-TG and DETA/NO are described elsewhere herein.
(§2) The top chamber of a Transwell filter (6.5 mm with 8 μm pores, Costar; Corning, N.Y.) was coated with a 10 μL aliquot of 10 mg/mL Matrigel, and the lower chamber of the Transwell was filled with either serum-free or serum-containing media. Sample cells were prepared to resuspend cells in a serum-free medium with 0.1% BSA at a concentration of 4×10^5 cells/mL. […] The Transwell filters were fixed with methanol, stained with haematoxylin and eosin, and cells in the serum-containing samples were counted. The number of cells that had invaded the serum-free, medium-containing lower chambers was used as a control background.

Test [5] relates to SUM149 cells. As to the kind of experiment: Matrigel invasion (cell motility) assay. The test is classed as cell-based, human. The note with it: FIG. 14A.
From the text: as §1, §2

Test [6] relates to HCCLM3 cells. As to the kind of experiment: QCM Cell Invasion Assay, time-dependent motility. The following applies: 6-TG in combination with a NO donor for 3 days; FIG. 14B. The test is classed as cell-based, human. The method, then: (§3) FIG. 14. Determination of cell invasiveness in the presence and absence of thiopurines and/or redox agents.
(§4) The Colorimetric-based QCM Cell Invasion Assay kit (Millipore, Billerica, Mass.) was used for the time-dependent cell migration assay of SUM149, SW480, and HCCLM3 cells. Serum-free sample cells (2×10^5 cells/mL) were prepared as indicated in the section of the matrigel invasion assay. The serum-free sample cells (0.25 mL) were loaded to the rehydrated upper chamber. […] Serum-free or serum-containing media (0.5 mL) was added to the lower chamber. The plate covered was then incubated for one to four days at 37° C. in a 10% CO2 incubator. […] The fraction of cells migrated from the upper chamber to the lower chamber was then measured colorimetrically according to the procedure provided by the manufacture.

In test [7] the test system is SW480 cells. The experiment in a line: QCM Cell Invasion Assay, time-dependent motility. The test is classed as cell-based, human. The following applies: 6-TG in combination with a NO donor for 3 days; FIG. 14B. The method, then: as §3, §4
The target in test [8] is RhoC C20S (Homo sapiens, UniProt P08134, C20S). The experiment in a line: RhoC expression (Western) and RhoC activity assay in cells. Format: cell-based. On the set-up: expressed in transfected cells; host or cells: human mammary epithelial (HME) cells. The note with it: HME-C20S RhoC cells, 6-TG three days. The method, then:
as §1
Cells were lysed in an extraction buffer containing 50 mM NaCl, 5 mM MgCl2, 1 mM ethylenediaminetetraacetic acid (EDTA), 0.1 mM diethylenetriaminepentaacetic acid (DTPA), and 0.1% NP40 in 150 mM TrisHCl (pH 8.0). The content of […] RhoC in cells then was determined by using Western analysis that relies on a monoclonal anti-RhoC antibody (Biocompare, South San Francisco, Calif.). To determine RhoC activity, the colorimetric RhoA activation assay Biochem Kit (Cytoskeleton, Denver, Colo.) was used essentially as described in the previous study (Hall et al. Neoplasia 10, 797-803 (2008)) except that the RhoC specific antibody (vide supra), instead of the RhoA antibody included in the assay kit, was used for this analysis.

Read-outs that look alike come from different tables or passages of the source.

Ras, sequence (P01112 whole entry): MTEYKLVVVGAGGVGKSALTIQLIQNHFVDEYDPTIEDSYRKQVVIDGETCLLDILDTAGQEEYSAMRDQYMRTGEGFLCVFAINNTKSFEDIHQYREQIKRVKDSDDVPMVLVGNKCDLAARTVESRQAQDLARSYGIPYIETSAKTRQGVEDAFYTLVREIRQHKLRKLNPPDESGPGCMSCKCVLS
RhoC C20S, sequence (P08134 whole entry C20S): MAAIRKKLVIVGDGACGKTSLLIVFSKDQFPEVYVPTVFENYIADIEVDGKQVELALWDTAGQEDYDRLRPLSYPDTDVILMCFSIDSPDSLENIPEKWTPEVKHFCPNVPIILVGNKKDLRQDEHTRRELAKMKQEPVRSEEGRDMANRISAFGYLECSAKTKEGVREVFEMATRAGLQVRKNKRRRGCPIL
T1 sequence (P61586 whole entry, species assumed): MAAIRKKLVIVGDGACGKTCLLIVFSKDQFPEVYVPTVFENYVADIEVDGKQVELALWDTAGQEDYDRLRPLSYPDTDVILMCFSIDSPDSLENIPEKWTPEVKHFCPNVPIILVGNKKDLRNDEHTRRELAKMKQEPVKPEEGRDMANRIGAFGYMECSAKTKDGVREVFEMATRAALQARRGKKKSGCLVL

Turning to `Nc1nc2c(ncn2[C@@H]2O[C@H](COP(=O)(O)OP(=O)(O)O)[C@@H](O)[C@H]2O)c(=O)[nH]1` [GDP], the Kd was 0.0048 µM in test [1] (absence of DTT, calculated by compensation equation, read-out: trueKD [3H]GDP); 0.0047 µM in test [1] (presence of DTT, calculated by compensation equation, read-out: trueKD [3H]GDP); 530 µM in test [1] (with DTT 10 mM, 6-TGDP-loaded GTPase ~1 μM treated with .NO2 ~3 μM, anaerobic, 1 h, read-out: appKD for [3H]GDP (6-TGDP dissociation)); 520 µM in test [1] (without DTT, 6-TGDP-loaded GTPase ~1 μM treated with .NO2 ~3 μM, anaerobic, 1 h, read-out: appKD for [3H]GDP (6-TGDP dissociation)); 13 µM in test [2]; 1.8 µM in test [3].

`Nc1nc2nc[nH]c2c(=S)[nH]1` [6-TG, 6-thioguanine]: in test [4] (6-TG alone, three days), the “effect on motility compared with SUM149 and HME-RhoC cells” value was “insignificant”. Also, the “effect on C20S RhoC activity and invasive cell motility” value in test [4] (6-TG with a NO donor, compared with either alone) is “lack of a significant effect”. Besides, the cell motility entry in test [5] (6-TG 1 μM alone, three or more consecutive days) was “gradual but significant diminution of cell motility”. Also, the invasive cell motility result in test [5] (6-TG 1 μM with DETA/NO (or GSNO) 10 μM, three days) is “complete termination of the invasive cell motility”. Also, the “most of the invasive motility” value in test [6] and in test [7] was “terminated” throughout. Also, the “activity and total expression of RhoC C20S” value in test [8] is “unchanged”.
